What follows are molecules tested against T1, APOL1 G1 Protein (Homo sapiens, UniProt O14791, I384M/S342G) (assay: Trypanosoma brucei brucei lysis assay using APOL1 recombinant protein (AlamarBlue viability)). Conditions: Trypanosoma brucei brucei lysis, recombinant APOL1, AlamarBlue; read-out: Trypanosoma Assay (IC50).
T1 sequence (O14791 28-398 S342G/I384M): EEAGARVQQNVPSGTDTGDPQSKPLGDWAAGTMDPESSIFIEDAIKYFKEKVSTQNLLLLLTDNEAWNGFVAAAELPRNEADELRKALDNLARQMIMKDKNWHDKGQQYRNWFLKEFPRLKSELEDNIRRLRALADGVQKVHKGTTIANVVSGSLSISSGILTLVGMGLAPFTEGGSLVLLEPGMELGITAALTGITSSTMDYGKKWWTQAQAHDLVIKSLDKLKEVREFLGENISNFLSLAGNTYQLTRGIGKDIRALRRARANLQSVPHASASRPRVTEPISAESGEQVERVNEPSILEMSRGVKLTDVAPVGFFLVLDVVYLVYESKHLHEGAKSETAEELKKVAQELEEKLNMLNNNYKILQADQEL
Type: cell-based
Outline: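 Bloodstream-form T. b. brucei Lister 427 VSG 221, 120,000 parasites/well in phenol red-free, FBS-free medium, lysed by recombinant APOL1 G1 with compound (10-point dose response, 0.1% DMSO final). Viability read by AlamarBlue fluorescence against a parasite standard curve.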

Compared with O=C1OCC[C@@H]1NC(=O)[C@H]1C[C@H](c2c(-c3ccc(F)cc3)[nH]c3c(F)cc(F)cc32)C1 [Compound 188], CC1CC(NC(=O)[C@H]2C[C@H](c3c(-c4ccc(F)cc4)[nH]c4c(F)cc(F)cc43)C2)C(=O)O1 (some centres unmarked) [Compound 207] is higher in IC50: 250 to 1000 nM for the first, > 1000 nM for the second.

Compared with O=C(NC[C@H]1CC[C@@H](CO)O1)[C@H]1C[C@H](c2c(-c3ccc(F)cc3)[nH]c3c(F)cc(F)cc32)C1 [Compound 189], O=C(NC(CO)C1CC1)[C@H]1C[C@H](c2c(-c3ccc(F)cc3)[nH]c3c(F)cc(F)cc32)C1 (some centres unmarked) [Compound 199] is lower in IC50: > 1000 nM for the first, 250 to 1000 nM for the second.

CC(C#N)(CO)NC(=O)[C@H]1C[C@H](c2c(-c3ccc(F)cc3)[nH]c3c(F)cc(F)cc32)C1 (some centres unmarked) [Compound 191] and N#CC(CO)NC(=O)[C@H]1C[C@H](c2c(-c3ccc(F)cc3)[nH]c3c(F)cc(F)cc32)C1 (some centres unmarked) [Compound 201] cannot be ordered by IC50: < 250 nM for the first, < 250 nM for the second.

First: O=C([C@H]1C[C@H](c2c(-c3ccc(F)cc3)[nH]c3c(F)cc(F)cc32)C1)N1CCC[C@@H]1CO [Compound 192]
Second: O=C([C@H]1C[C@H](c2c(-c3ccc(F)cc3)[nH]c3c(F)cc(F)cc32)C1)N1CCC[C@H]1CO [Compound 210]
The IC50 of the first is lower: < 250 nM for the first, 250 to 1000 nM for the second.

O=C(NC1(CO)CCOC1)[C@H]1C[C@H](c2c(-c3ccc(F)cc3)[nH]c3c(F)cc(F)cc32)C1 (some centres unmarked) [Compound 194] and O=C(NC1(CO)CC(F)(F)C1)[C@H]1C[C@H](c2c(-c3ccc(F)cc3)[nH]c3c(F)cc(F)cc32)C1 [Compound 202] cannot be ordered by IC50: < 250 nM for the first, < 250 nM for the second.

O=C([C@H]1C[C@H](c2c(-c3ccc(F)cc3)[nH]c3c(F)cc(F)cc32)C1)N1CC[C@@H]1CO [Compound 195] and O=C([C@H]1C[C@H](c2c(-c3ccc(F)cc3)[nH]c3c(F)cc(F)cc32)C1)N1CC[C@H]1CO [Compound 206] cannot be ordered by IC50: < 250 nM for the first, < 250 nM for the second.

C#CC(CO)NC(=O)[C@H]1C[C@H](c2c(-c3ccc(F)cc3)[nH]c3c(F)cc(F)cc32)C1 (some centres unmarked) [Compound 196] and C[C@@H](CO)NC(=O)[C@H]1C[C@H](c2c(-c3ccc(F)cc3)[nH]c3c(F)cc(F)cc32)C1 [Compound 200] cannot be ordered by IC50: < 250 nM for the first, < 250 nM for the second.

Going from Cn1ncc(CNC(=O)[C@H]2C[C@H](c3c(-c4ccc(F)cc4)[nH]c4c(F)cc(F)cc43)C2)n1 [Compound 198] to O=C(NC[C@@H](O)CO)[C@H]1C[C@H](c2c(-c3ccc(F)cc3)[nH]c3c(F)cc(F)cc32)C1 [Compound 224], the IC50 rises from < 250 nM to > 1000 nM.

Compared with CC[C@H](CO)NC(=O)[C@H]1C[C@H](c2c(-c3ccc(F)cc3)[nH]c3c(F)cc(F)cc32)C1 [Compound 203], CC[C@@H](CO)NC(=O)[C@H]1C[C@H](c2c(-c3ccc(F)cc3)[nH]c3c(F)cc(F)cc32)C1 [Compound 204] is lower in IC50: 250 to 1000 nM for the first, < 250 nM for the second. The second is the more potent here.

First: CN(C(=O)[C@H]1C[C@H](c2c(-c3ccc(F)cc3)[nH]c3c(F)cc(F)cc32)C1)C1COCC1O (some centres unmarked) [Compound 205]
Second: O=C([C@H]1C[C@H](c2c(-c3ccc(F)cc3)[nH]c3c(F)cc(F)cc32)C1)N1C[C@@H](O)[C@H](O)C1 [Compound 227]
The IC50 of the first is higher: > 1000 nM for the first, 250 to 1000 nM for the second.

O=C1NCCC1CNC(=O)[C@H]1C[C@H](c2c(-c3ccc(F)cc3)[nH]c3c(F)cc(F)cc32)C1 (some centres unmarked) [Compound 208] and O=C1N[C@H](CO)C[C@@H]1NC(=O)[C@H]1C[C@H](c2c(-c3ccc(F)cc3)[nH]c3c(F)cc(F)cc32)C1 [Compound 209] cannot be ordered by IC50: > 1000 nM for the first, > 1000 nM for the second.

C[C@]1(NC(=O)[C@H]2C[C@H](c3c(-c4ccc(F)cc4)[nH]c4c(F)cc(F)cc43)C2)C[C@@H](O)C1 [Compound 211] and O=C(N[C@H]1CNC[C@@H]1O)[C@H]1C[C@H](c2c(-c3ccc(F)cc3)[nH]c3c(F)cc(F)cc32)C1 [Compound 212] fall in the same range of IC50: 250 to 1000 nM for the first, 250 to 1000 nM for the second.

First: CS(=O)(=O)NC(=O)[C@H]1C[C@H](c2c(-c3ccc(F)cc3)[nH]c3c(F)cc(F)cc32)C1 [Compound 213]
Second: NC(=O)C1CC(c2c(-c3ccc(F)cc3)[nH]c3c(F)cc(F)cc23)C1 (centres unmarked) [Compound 278, 3-[5,7-difluoro-2-(4-fluorophenyl)-1H-indol-3-yl]cyclobutanecarboxamide]
The IC50 of the first is higher: > 1000 nM for the first, 250 to 1000 nM for the second. The second is the more potent here.

First: CC(C)(O)C(O)CNC(=O)[C@H]1C[C@H](c2c(-c3ccc(F)cc3)[nH]c3c(F)cc(F)cc32)C1 (some centres unmarked) [Compound 215]
Second: O=C(NC[C@H](O)CO)[C@H]1C[C@H](c2c(-c3ccc(F)cc3)[nH]c3c(F)cc(F)cc32)C1 [Compound 225]
The IC50 of the first is higher: > 1000 nM for the first, 250 to 1000 nM for the second. The second is the more potent here.

First: O=C([C@H]1C[C@H](c2c(-c3ccc(F)cc3)[nH]c3c(F)cc(F)cc32)C1)N1CCOC[C@H]1CO [Compound 217]
Second: O=C([C@H]1C[C@H](c2c(-c3ccc(F)cc3)[nH]c3c(F)cc(F)cc32)C1)N1CCOC[C@@H]1CO [Compound 219]
The IC50 of the first is higher: 250 to 1000 nM for the first, < 250 nM for the second. The second is the more potent here.

First: COC[C@@H]1CCN1C(=O)[C@H]1C[C@H](c2c(-c3ccc(F)cc3)[nH]c3c(F)cc(F)cc32)C1 [Compound 220]
Second: O=C([C@H]1C[C@H](c2c(-c3ccc(F)cc3)[nH]c3c(F)cc(F)cc32)C1)N1CC(CO)C1 [Compound 223]
The IC50 of the first is higher: 250 to 1000 nM for the first, < 250 nM for the second. The second is the more potent here.

NC(=O)[C@@H](CO)NC(=O)[C@H]1C[C@H](c2c(-c3ccc(F)cc3)[nH]c3c(F)cc(F)cc32)C1 [Compound 221] and COC[C@@H]1CCN1C(=O)[C@H]1C[C@H](c2c(-c3ccc(F)cc3)[nH]c3c(F)cc(F)cc32)C1 [Compound 222] cannot be ordered by IC50: < 250 nM for the first, < 250 nM for the second.

With O=C1CN(C(=O)[C@H]2C[C@H](c3c(-c4ccc(F)cc4)[nH]c4c(F)cc(F)cc43)C2)CCN1 [Compound 228] the IC50 was > 1000 nM.

From patent US12116343B2, “Inhibitors of APOL1 and methods of using same” (Vertex Pharmaceuticals Incorporated, priority 2020, dated 2024)
